Experimental findings from patent US20130303533A1, “AZOLOPYRIDINE AND AZOLOPYRIMIDINE COMPOUNDS AND METHODS OF USE THEREOF” (AMBIT BIOSCIENCES CORPORATION, priority 2010, published 2013) are described below.

For experiment [1], the system named is GM-CSFR/JAK2/STAT5 pathway. Briefly: CSTF-1 cell-based reporter assay. Conditions: Homo sapiens; csTF-1 cells, GM-CSF at 2 ng/mL, 4 hours, beta-lactamase reporter; read-out: Cell Assay: CS TF-1 reporter assay IC50. The procedure:
CSTF-1 Cell-Based Reporter Assay
CSTF-1 cells are derived from the human erythroleukemia cell line that is growth dependent on GM-CSF and has an intact GM-CSFR/JAK2/STAT5 pathway. The cell line contains stably integrated beta-lactamase reporter gene under the control of the […] (irf 1) response element recognized by the activated transcription factor STAT5. csTF-1 cells (Invitrogen K1219) were washed with assay media (97% OPTIMEM/0.5% dialyzed FBS/0.1 mM NEAA/1 mM Na pyr/P/S) and seeded in the same media at 5×10^5 cell/mL in T150 flask. After 16 hour incubation, cells were seeded at 2×10^5 cell/well in 50 μl volume, into Costar, clear bottom, 96-well assay plates. Serial dilutions of compounds were added to the plates with final DMSO concentration at 0.5% and GM-CSF at 2 ng/mL and the plates were then incubated at 30° C. and 5% CO2 for 4 hours. The plates were brought to room temperature before adding Substrate Mixture according to manufacturer's protocol (Invitrogen, Catalog #K1085). The assay plates containing the substrate mixture were incubated in the dark at room temperature for 2 hours. Blue and green fluorescence was measured with excitation at 409 nm and emission at 460 nm (for blue) and excitation at 409 nm and emission at 530 nm (for green) using Spectra Max Gemini EM.

The target in the next experiment is T1, JAK2 (Homo sapiens, UniProt O60674).
T1 construct: made in house; host or cells: T7 phage display or HEK-293 cells (alternatives)
T1 sequence (O60674 whole entry): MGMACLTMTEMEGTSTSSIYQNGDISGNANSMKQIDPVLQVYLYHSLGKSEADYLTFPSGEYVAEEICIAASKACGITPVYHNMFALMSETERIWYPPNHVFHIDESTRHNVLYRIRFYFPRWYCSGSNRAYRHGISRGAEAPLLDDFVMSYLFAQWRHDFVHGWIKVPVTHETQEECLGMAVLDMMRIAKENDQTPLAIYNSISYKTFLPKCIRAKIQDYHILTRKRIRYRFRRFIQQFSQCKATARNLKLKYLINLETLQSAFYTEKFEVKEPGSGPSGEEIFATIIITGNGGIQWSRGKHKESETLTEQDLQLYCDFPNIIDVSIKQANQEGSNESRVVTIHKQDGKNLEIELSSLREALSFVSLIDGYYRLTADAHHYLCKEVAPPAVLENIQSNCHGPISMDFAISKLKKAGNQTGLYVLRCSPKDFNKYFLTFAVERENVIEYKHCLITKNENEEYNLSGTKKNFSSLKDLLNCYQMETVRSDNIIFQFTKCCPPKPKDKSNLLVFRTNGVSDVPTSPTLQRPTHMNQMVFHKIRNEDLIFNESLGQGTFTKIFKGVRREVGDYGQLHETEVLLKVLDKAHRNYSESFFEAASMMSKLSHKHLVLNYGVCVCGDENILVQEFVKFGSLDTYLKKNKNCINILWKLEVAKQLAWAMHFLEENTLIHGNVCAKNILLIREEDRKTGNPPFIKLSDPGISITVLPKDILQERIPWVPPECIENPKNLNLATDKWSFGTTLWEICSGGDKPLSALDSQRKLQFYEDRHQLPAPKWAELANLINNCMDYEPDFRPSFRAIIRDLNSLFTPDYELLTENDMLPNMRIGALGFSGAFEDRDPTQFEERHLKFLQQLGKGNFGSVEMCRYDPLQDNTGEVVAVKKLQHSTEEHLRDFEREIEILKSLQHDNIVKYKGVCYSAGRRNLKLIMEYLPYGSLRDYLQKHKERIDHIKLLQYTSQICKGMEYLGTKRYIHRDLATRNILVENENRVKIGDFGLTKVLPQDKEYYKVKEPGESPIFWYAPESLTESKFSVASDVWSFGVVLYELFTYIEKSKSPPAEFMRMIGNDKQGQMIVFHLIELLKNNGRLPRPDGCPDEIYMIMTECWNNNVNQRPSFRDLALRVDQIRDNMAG
The experiment is described as follows: Competition binding assay to determine binding constants (Kd), JAK2. The source says: (§1) Competition Binding Assay to Determine Binding Constants (Kd) of the Compounds Against JAK Kinases
(§2) Competition binding assays used herein were developed, validated and performed as described in Fabian et al., Nature Biotechnology 2005, 23, 329-336. Kinases were produced as fusions to T7 phage (See, Fabian et al. or WO04/015142) or alternatively, the kinases were expressed in HEK-293 cells and subsequently tagged with DNA for PCR detection (See, WO08/005,310). For the binding assays, streptavidin-coated magnetic beads were treated with biotinylated affinity ligands for 30 min at rt to generate affinity resins. The liganded beads were blocked with excess biotin and washed with blocking buffer (SeaBlock (Pierce), 1% BSA, 0.05% Tween 20, 1 mM DTT) to remove unbound ligand and to reduce non-specific binding. Binding reactions were assembled by combining kinase, liganded affinity beads, and test compounds in 1× binding buffer (20% SeaBlock, 0.17×PBS, 0.05% Tween 20, 6 mM DTT). Test compounds were prepared as 100× stocks in DMSO and rapidly diluted into the aqueous environment. DMSO was added to control assays lacking a test compound. Primary screen interactions were performed in polypropylene 384-well plates in a final volume of 34 μL, while Kd determinations were performed in polystyrene 96-well plates in a final volume of 135 μL. The assay plates were incubated at room temperature with shaking for 1 hour, long enough for binding reactions to reach equilibrium, and the affinity beads were washed extensively with wash buffer (1×PBS, 0.05% Tween 20) to remove unbound protein. The beads were then resuspended in elution buffer (1×PBS, 0.05% Tween 20, 2 μM non-biotinylated affinity ligand) and incubated at room temperature with shaking for 30 min. The kinase concentration in the eluates was measured by quantitative PCR. Each kinase was tested individually against each compound. Kds were determined using eleven serial threefold dilutions. A selectivity score, which is a quantitative measure of selectivity of a compound against a panel of enzymes, may be calculated for a compound by dividing the number of enzymes for which a compound meets a set criteria, (for example, a binding constant of 100 nM or less), by the total number of enzymes tested.

The next experiment has as its target T2, JAK3 (Homo sapiens, UniProt P52333).
T2 construct: made in house; host or cells: T7 phage display or HEK-293 cells (alternatives)
T2 sequence (P52333 1-1124): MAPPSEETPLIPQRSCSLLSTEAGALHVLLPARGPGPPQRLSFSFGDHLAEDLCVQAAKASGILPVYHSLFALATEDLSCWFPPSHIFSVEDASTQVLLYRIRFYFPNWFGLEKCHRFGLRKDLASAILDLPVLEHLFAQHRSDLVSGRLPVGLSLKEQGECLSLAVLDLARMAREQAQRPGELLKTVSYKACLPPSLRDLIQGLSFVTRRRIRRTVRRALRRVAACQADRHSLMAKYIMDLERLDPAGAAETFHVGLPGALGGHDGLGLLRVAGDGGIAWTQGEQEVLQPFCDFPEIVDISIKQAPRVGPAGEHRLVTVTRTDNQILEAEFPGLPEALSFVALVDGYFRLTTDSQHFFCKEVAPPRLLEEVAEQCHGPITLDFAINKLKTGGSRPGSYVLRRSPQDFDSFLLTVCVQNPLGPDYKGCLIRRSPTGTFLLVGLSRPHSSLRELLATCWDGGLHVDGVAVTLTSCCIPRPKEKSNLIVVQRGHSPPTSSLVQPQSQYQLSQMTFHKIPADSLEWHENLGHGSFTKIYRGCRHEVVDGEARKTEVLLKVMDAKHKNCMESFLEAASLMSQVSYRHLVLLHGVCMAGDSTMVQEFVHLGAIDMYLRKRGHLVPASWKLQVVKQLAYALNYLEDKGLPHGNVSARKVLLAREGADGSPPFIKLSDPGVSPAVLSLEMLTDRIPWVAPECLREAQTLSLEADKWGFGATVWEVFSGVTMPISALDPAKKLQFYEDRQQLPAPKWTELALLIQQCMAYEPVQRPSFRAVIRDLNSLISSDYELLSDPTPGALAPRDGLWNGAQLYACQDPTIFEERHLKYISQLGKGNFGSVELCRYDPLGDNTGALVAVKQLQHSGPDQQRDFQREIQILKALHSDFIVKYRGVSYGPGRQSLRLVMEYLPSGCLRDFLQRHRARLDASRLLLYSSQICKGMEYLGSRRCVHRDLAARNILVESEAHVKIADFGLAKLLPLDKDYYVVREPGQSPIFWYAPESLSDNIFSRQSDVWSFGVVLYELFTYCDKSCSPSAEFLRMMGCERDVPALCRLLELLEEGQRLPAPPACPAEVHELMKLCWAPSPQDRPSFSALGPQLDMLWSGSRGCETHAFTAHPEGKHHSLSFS
The experiment is described as follows: Competition binding assay to determine binding constants (Kd), JAK3.
Text: as §1, §2

The target of another experiment is T3, TYK2 (Homo sapiens, UniProt P29597).
T3 construct: made in house; host or cells: T7 phage display or HEK-293 cells (alternatives)
T3 sequence (P29597 whole entry): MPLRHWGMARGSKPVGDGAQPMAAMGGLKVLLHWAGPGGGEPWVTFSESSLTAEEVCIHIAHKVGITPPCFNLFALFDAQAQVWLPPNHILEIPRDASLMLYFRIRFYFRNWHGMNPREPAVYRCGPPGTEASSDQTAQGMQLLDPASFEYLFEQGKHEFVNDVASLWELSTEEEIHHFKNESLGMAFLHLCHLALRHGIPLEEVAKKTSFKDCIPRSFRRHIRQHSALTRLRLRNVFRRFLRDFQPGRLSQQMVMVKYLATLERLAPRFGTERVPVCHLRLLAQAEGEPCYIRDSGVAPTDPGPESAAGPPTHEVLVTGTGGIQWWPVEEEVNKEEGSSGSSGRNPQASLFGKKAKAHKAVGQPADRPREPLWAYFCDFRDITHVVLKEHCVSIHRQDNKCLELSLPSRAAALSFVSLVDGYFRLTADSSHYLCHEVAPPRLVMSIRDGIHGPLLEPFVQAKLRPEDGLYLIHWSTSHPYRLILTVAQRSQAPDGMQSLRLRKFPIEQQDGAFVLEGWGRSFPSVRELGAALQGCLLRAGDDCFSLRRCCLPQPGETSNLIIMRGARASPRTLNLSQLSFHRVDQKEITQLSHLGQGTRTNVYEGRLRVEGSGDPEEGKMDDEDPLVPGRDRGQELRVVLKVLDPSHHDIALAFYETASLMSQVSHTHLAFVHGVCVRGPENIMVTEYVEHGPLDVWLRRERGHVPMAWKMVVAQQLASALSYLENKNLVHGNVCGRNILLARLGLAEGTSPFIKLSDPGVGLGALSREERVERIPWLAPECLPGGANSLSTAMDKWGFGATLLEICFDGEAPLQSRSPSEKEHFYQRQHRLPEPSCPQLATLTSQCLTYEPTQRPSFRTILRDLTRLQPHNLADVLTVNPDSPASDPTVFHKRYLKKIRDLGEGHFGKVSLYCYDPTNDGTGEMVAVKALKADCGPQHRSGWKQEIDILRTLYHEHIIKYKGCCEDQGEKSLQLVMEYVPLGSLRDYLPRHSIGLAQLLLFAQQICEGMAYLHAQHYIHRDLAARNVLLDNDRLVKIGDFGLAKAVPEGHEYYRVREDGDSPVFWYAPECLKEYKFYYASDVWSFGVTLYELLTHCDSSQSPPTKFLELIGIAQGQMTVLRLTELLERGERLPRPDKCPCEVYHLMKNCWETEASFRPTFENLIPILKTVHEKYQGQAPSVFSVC
Briefly: Competition binding assay to determine binding constants (Kd), TYK2.
Text: as §1, §2

Where only a bound is given, the exact number is not on record here.

Turning to `Cc1cc(Nc2nc(S(=O)(=O)c3ccc(F)cc3)nc3c2ccn3C(C)C)n[nH]1` [Example 10, 2-(4-fluorophenylsulfonyl)-7-isopropyl-N-(5-methyl-1H-pyrazol-3-yl)-7H-pyrrolo[2,3-d]pyrimidin-4-amine], in experiment [1], the IC50 was at most 100 nM. For the same compound, the dissociation constant (Kd) on JAK2 was at most 1 nM; on JAK3 it was at most 10 nM; on TYK2, at most 10 nM.
For the compound `COCCn1ccc2c(Nc3cc(C)[nH]n3)nc(S(=O)(=O)c3ccc(F)cc3)nc21` [Example 11, 2-(4-fluorophenylsulfonyl)-7-(2-methoxyethyl)-N-(5-methyl-1H-pyrazol-3-yl)-7H-pyrrolo[2,3-d]pyrimidin-4-amine], the IC50 in experiment [1] was at most 100 nM. Also, the values for the Kd on JAK2, at JAK3 and on TYK2 were at most 1 nM, at most 10 nM and at most 10 nM, respectively.
Take `COCCn1ccc2c(Nc3cc[nH]n3)nc(S(=O)(=O)c3ccc(F)cc3)nc21` [Example 12, 2-(4-fluorophenylsulfonyl)-7-(2-methoxyethyl)-N-(1H-pyrazol-3-yl)-7H-pyrrolo[2,3-d]pyrimidin-4-amine]: in experiment [1], the IC50 is at most 100 nM. Moreover, the dissociation constant Kd at JAK2 is at most 1 nM; on JAK3, at most 10 nM; at TYK2 it was at most 10 nM.
On to `Cc1cc(Nc2nc(S(=O)(=O)c3ccc(F)cc3)nc3c2ccn3CCO)n[nH]1` [Example 13, 2-(2-(4-fluorophenylsulfonyl)-4-(5-methyl-1H-pyrazol-3-ylamino)-7H-pyrrolo[2,3-d]pyrimidin-7-yl)ethanol], for which the IC50 in experiment [1] was at most 100 nM. Besides, the Kd on JAK2 is at most 1 nM; on JAK3 it was at most 10 nM; on TYK2 it was at most 10 nM.
Regarding `CCn1ccc2c(Nc3cc(OC)[nH]n3)nc(S(=O)(=O)c3ccc(F)cc3)nc21` [Example 14, 7-ethyl-2-(4-fluorophenylsulfonyl)-N-(5-methoxy-1H-pyrazol-3-yl)-7H-pyrrolo[2,3-d]pyrimidin-4-amine], the half-inhibitory concentration (IC50) in experiment [1] is at most 100 nM. The results for the Kd on JAK2, at JAK3 and at TYK2 were at most 1 nM, at most 10 nM and at most 10 nM, respectively.
With `Cc1cc(Nc2nc(S(=O)(=O)c3ccc(F)cc3)nc3c2ccn3CC(=O)N(C)C)n[nH]1` [Example 15], the IC50 in experiment [1] is 100 to 500 nM. Also, the Kd at JAK2 is at most 1 nM; at JAK3, at most 10 nM; at TYK2 it was at most 10 nM.
Regarding `CN(C)C(=O)Cn1ccc2c(Nc3cc[nH]n3)nc(S(=O)(=O)c3ccc(F)cc3)nc21` [Example 16, 2-(4-(1H-pyrazol-3-ylamino)-2-(4-fluorophenylsulfonyl)-7H-pyrrolo[2,3-d]pyrimidin-7-yl)-N,N-dimethylacetamide], the half-inhibitory concentration (IC50) in experiment [1] lay within 100 to 500 nM. Also, the Kd is at most 1 nM at JAK2, at most 10 nM on JAK3 and at most 10 nM at TYK2.
Consider `Cc1cc(Nc2nc(S(=O)(=O)c3ccc(F)cc3)nc3c2ccn3CCS(C)(=O)=O)n[nH]1` [Example 17, 2-(4-fluorophenylsulfonyl)-N-(5-methyl-1H-pyrazol-3-yl)-7-(2-(methylsulfonyl)ethyl)-7H-pyrrolo[2,3-d]pyrimidin-4-amine], for which, in experiment [1], the IC50 lay within 100 to 500 nM. Besides, the results for the Kd on JAK2, at JAK3 and at TYK2 were at most 1 nM, at most 10 nM and at most 10 nM, respectively.
With `CS(=O)(=O)CCn1ccc2c(Nc3cc[nH]n3)nc(S(=O)(=O)c3ccc(F)cc3)nc21` [Example 18, 2-(4-fluorophenylsulfonyl)-7-(2-(methylsulfonyl)ethyl)-N-(1H-pyrazol-3-yl)-7H-pyrrolo[2,3-d]pyrimidin-4-amine], in experiment [1], the IC50 lay in the range of 100 to 500 nM. The Kd on JAK2 is at most 1 nM; on JAK3, at most 10 nM; on TYK2, at most 10 nM.
For `Cc1cc(Nc2nc(S(=O)(=O)c3ccc(F)cc3)nc3c2ccn3CCN2CCOCC2)n[nH]1` [Example 19, 2-(4-fluorophenylsulfonyl)-N-(5-methyl-1H-pyrazol-3-yl)-7-(2-morpholinoethyl)-7H-pyrrolo[2,3-d]pyrimidin-4-amine], in experiment [1], the IC50 is at most 100 nM. The Kd at JAK2 was 1 to 10 nM; at JAK3, at most 10 nM; at TYK2, at most 10 nM.
